# According to patent US20090069418A1, “Compositions and Methods for the Treatment of Disorders Associated with Aberrant Vasodilation” (priority 2007, published 2009):
# Where two headings read alike, the source gives them in different places.
# Tests used:
# [1] = AUDA-BE and its metabolites measured in brain tissue; format: in vivo, mice; conditions: for levels detected in homogenates of brain tissue: after AUDA-BE injection, methanol/chloroform extraction
# From the text: This concentration was also biologically effective in lowering blood pressure in hypertensive model (Imig et al. (2005) Hypertension 46:975-81). Therefore, in these experiments, the levels of sEH inhibitors in the blood are in the concentration range expected to inhibit the enzyme.
# [2] = system: neonatal murine cardiomyocytes; assay: Oxygen-glucose deprivation of cultured cardiomyocytes transduced with TAT-hsEH, cell death by propidium iodide; format: cell-based; conditions: for cell survival after OGD: all polymorphisms/groups tested except Arg287Gln
# Description: Post natal Day 7-8 C57BL\6 mice were used. 3-4 hearts were obtained from same-gender mice. Cells were dissociated with 0.625% wt/volume trypsin in Ca^2+ and Mg^2+ free HBSS. The cells were centrifuged and re-suspended in FBS-M199. Cells were supplemented with estrogen-free 15% FBS, 100 U/ml penicillin, 100 μg/ml streptomycin, and 25 μM cytosine arabinoside. The cells were then plated at 37° C. for 1 hour under a water-saturated atmosphere of 5% CO2-[…]. Suspended cells were collected and plated at 1.0×10^5 cells/cm^2 and incubated as above for 24 hours.
# Six TAT-hsEH fusion proteins, including one wild type and five EPHX2 mutants (Lys55Arg, Arg103Cys, Cys154Tyr, Arg287Gln, and Arg103Cys/Arg287Gln), were expressed and purified as reported (Koerner et al. (2007) J. Neurosci., 27:4642-4649).
# TAT-hsEH fusion proteins were added to the medium of cultured cardiomyocytes to the final concentration of 100 nM. The cells were incubated at 37° C. for 24 hours before the onset of oxygen-glucose deprivation.
# For oxygen-glucose deprivation (OGD), cells were placed in a Plexiglas hypoxia chamber under 100% N2 at 37° C. and glucose-free medium (MEM/HBSS). For reoxygenation, cells were placed in 21% O2 (5% CO2) and glucose-replete FBS-M199 medium.
# Cell death was assessed via propidium iodide (PI, 5 μM) with >300 cells/sample.
# Cultured neonatal murine cardiomyocytes were transduced with five human EPHX2 variants linked to the protein transduction domain TAT. Cultures were subjected to 1.5 hours of oxygen and glucose deprivation followed by 3 hours of re-oxygenation, with or without sEH substrate 14,15-EET. Cell death was assessed by propidium iodide (% of all cells, mean±SEM, n=5-9 replicates). Successful transduction was confirmed by immunoblot. All mutants reduced cell death compared to the human wild-type EPHX2 (rh-sEHWT, 63±1%), but only the Arg287Gln mutations was different from untransduced controls (FIG. 13B).
# mice [3] = format: in vivo
# From the text: Male mice between the ages of 16-24 weeks were anesthetized with isoflurane (induction 4-5 vol %; maintenance 1-2 vol %), intubated with a 20G plastic IV catheter, and mechanically ventilated using a rodent ventilator (Inspira, volume-controlled, Harvard Apparatus, MA). ECG and rectal temperature were continuously monitored using a PC-based recording device (PowerLab 8/30, ADInstruments, Colorado Springs, Colo.). The animals were positioned in a right lateral decubital position on a heating pad and rectal temperature was maintained at 37° C. throughout the experiment. A PE-10 catheter was inserted into the left jugular vein for intravenous drug infusion. Using a dissecting microscope, a left-sided thoracotomy was performed in the 4th intercostal space. […] A ligature (8-0 Monosof MV-135-4, ⅜ 5 mm tapered needle, Syneture, Norwalk, Colo.) was placed around the left coronary artery (LCA) approximately 2 mm distal to the left atrial margin. The suture was fed through a short section of PE-10 tubing to form a snare to allow temporary occlusion. The LCA was occluded for 40 minutes; occlusion was confirmed by persistent ECG changes during occlusion and visual paling of the left ventricle (LV). After 40 minutes the snare was released and reperfusion was confirmed with visual hyperemia of the LV and return of the ECG changes. After 2 hours of reperfusion the LCA was re-occluded and fluorescent polymer microspheres (0.4% solution, diameter 1-10 μm; Duke Scientific Corporation, Palo Alto, Calif.) were infused via needle puncture of the LV apex. […] Heart was then excised, rinsed in normal saline, and the right and left atria were removed under the dissecting microscope. The remaining left and right ventricles were weighed and then sliced into seven sections (d=1 mm) for imaging and staining.
# Heart sections were immediately photographed with a digital camera (Canon Powershot A620) under UV light for determination of AAR. Infarct size (I) was determined by staining the heart sections in 1% 2,3,5 triphenyltetrazolium chloride (TTC) in phosphate buffer at pH 7.4 for 10 minutes, followed by 10% neutral buffered formalin (NBF) bath overnight. Pictures were taken the next day under full spectrum light. TTC stained non-infarcted myocardium red, while infarcted myocardium remained white. Both AAR and I areas were calculated in a blinded fashion using standard imaging software (Photoshop Elements 4). A calibration ruler was present in each picture to convert pixels into volume. TTC slices were volume corrected for dehydration following formalin immersion.
# The 14,15-EET was obtained from BIOMOL (Plymouth Meeting, Pa.). It was dissolved in a vehicle composed of 100% ethanol and saline (1:3), resulting in a final ethanol solution of 25%. […] SNC-162, a non-peptide δ-opioid receptor agonist, was used for comparison of the magnitude of cardioprotection found within the epoxide pathway. SNC-162 (0.1 μg/g iv over 10 minutes) was dissolved in 10% DMSO.
# mice [4] = assay: MCAO in mice, infarct size (Example 6); format: in vivo
# From the text: Transient focal cerebral ischemia was induced in adult male mice (20 to 26 g body weight) using the intraluminal MCAO technique, as previously described (Alkayed et al. (2001) J. Neurosci., 21:7543-7550). Briefly, mice were anesthetized with halothane (1.5 to 2% in O2-enriched air by face mask), and kept warm with water pads. A small laser-Doppler probe was affixed to skull to monitor cortical perfusion and verify vascular occlusion and reperfusion. A silicone-coated 6-0 nylon monofilament was inserted into the right internal carotid artery (ICA) via the external carotid artery (ECA) until laser-Doppler signal dropped to <30% of baseline. After securing the filament in place, the surgical site was closed, and the animal was awakened and assessed at 2 hours of occlusion for neurological deficit using a simple neurological scoring system as follows: 0=no deficit, 1=failure to extend forelimb, 2=circling, 3=unilateral weakness, 4=no spontaneous motor activity. […] Infarct size was measured at 24 hours after MCAO in 2-mm thick coronal brain sections (5 total) using 2,3,5-triphenyltetrazolium chloride (TTC) staining and digital image analysis. […] Slices were photographed and infracted (unstained) and uninfarcted (red color) areas were measured with MCID software (InterFocus, Linton, England) and integrated across all 5 slices. […]
# [5] = Pharmacokinetics of AUDA-BE and its metabolites in plasma after single intraperitoneal injection; format: in vivo, C57Bl/6 mice
# Description: A second set of animals was injected with sesame oil alone (vehicle). […] (2002) Biochem. Pharmacol., 63:1599-608; Watanabe et al. (2006) Anal. Chim. Acta., 559:37-44). Briefly, blood samples (10 μL) were collected in 1.5 mL Eppendorf microcentrifuge tubes, weighed, and vortexed with 100 μL of purified water. […] Aliquots (10 μL) were analyzed by liquid chromatography coupled mass spectroscopy LC-MS/MS (Watanabe et al. (2006) Anal. Chim. Acta., 559:37-44; Watanabe and Hammock (2001) Anal. Biochem., 299:227-34). The concentration of sEH inhibitors were quantified in extracts using HPLC with positive mode electrospray ionization and tandem mass spectrometry. Analytes were quantified on a 5-point curve with internal standard methods. Surrogate recoveries were evaluated by quantification against the internal standard. Surrogate recoveries were 70% for all reported plasma samples, the analysis of reagent blanks, matrix spikes, and analytical replicates were used to document method stability during this study. […] Differences in infarct size, enzyme activity, and blood flow rates were analyzed with a t-test for two groups and analysis of variance with post hoc Newman-Keuls multiple range test for multiple groups. The pharmacokinetic profile was examined for goodness of fit to a noncompartmental or multicompartmental models. Pharmacokinetic parameters were then obtained by fitting the blood-concentration-time data to a non-compartmental model with the WinNonlin software (Pharsight, Mountain View, Calif., USA), as described previously (Watanabe et al. (2006) Anal. Chim. Acta., 559:37-44). The criterion for statistical significance was set at P<0.05. All values are reported as mean±s.e.m.
# C57Bl/6 mice = assay: Middle cerebral artery occlusion in mice, infarct size (Example 2); format: in vivo; conditions: MS-PPOH alone
# Description: (2001) J. Neurosci., 21:7543-50). […] A small laser-Doppler probe was affixed to the skull to monitor cortical perfusion and verify vascular occlusion and reperfusion. […] After securing the filament in place, the surgical site was closed, and the animal was awakened and assessed at 2 hours of occlusion for neurological deficit using a simple neurological scoring system as follows: 0=no deficit, 1=failure to extend forelimb, 2=circling, 3=unilateral weakness, 4=no spontaneous motor activity. Mice with clear neurological deficit were re-anesthetized, laser-Doppler probe re-positioned over same site on the skull, and the occluding filament was withdrawn to allow for reperfusion. Mice were then allowed to recover and observed for 1 day. […] Slices were photographed, and infarcted (unstained) and uninfarcted (red color) areas were measured with MCID software (InterFocus Imaging Ltd, Linton, UK) and integrated across all five slices. To account for the effect of edema, the infarcted area was estimated indirectly by subtracting the uninfarcted area in the ipsilateral hemisphere from the contralateral hemisphere, and expressing infarct volume as a percentage of contralateral hemisphere. […] (2000) J. Physiol. Pharmacol., 51:655-72). […] Animals were randomly assigned to treatment groups.
# [6] = given prior to LCA occlusion (PRE)
# [7] = AUDA-BE 10 mg/kg intraperitoneal
# [8] = single injection of 10 mg/kg AUDA-BE
compound,measurement,setting,value
12-(3-adamantan-1-yl-ureido)-butyl acid [AUBA],levels detected in homogenates of brain tissue,[1],not
"O=C(c1ccccc1)C1OC1c1ccc(-c2ccccc2)cc1 (stereo not shown) [4-PCO, 4-phenylchalcone oxide]",cell survival after OGD,[2],improved cell survival significantly
"CCCCCC1OC1C/C=C\C/C=C\C/C=C\CCCC(=O)O (stereo not shown) [14,15-EET]",cell survival after OGD,[2],improved cell survival
same,"cell death (propidium iodide, % of all cells)","[2]; excess 14,15-EET (1 μM) in Arg287Gln-transduced cardiomyocytes, 1.5 hours OGD, 3 hours re-oxygenation",45±1%
same,Infarct Volume,mice [3]; PRO (given prior to reperfusion),12 ± 2 mm^3
same,infarct size after myocardial I/R compared to vehicle,mice [3]; given before ischemia or before reperfusion,significantly reduced
same,Infarct Volume,mice [3]; [6],10 ± 1 mm^3
same,bleeding in pilot studies following heparin administration,"mice [3]; mouse, in vivo",excessive bleeding
same,"reducing I/AAR, injection prior to reperfusion compared to pre-ischemic delivery","mice [3]; mouse, in vivo",less effective
same,infarct size after MCAO,"mice [4]; 14,15-EET 1 μg over 24 hours via osmotic minipump, jugular vein, vehicle 34.5±8.6%",10.9±4.3%
"CCCCCC1OC1CCCCCCC/C=C\CCCC(=O)O (stereo not shown) [14,15-EEZE, 14,15-epoxyeicosa-5(Z)-enoic acid]",infarct size after MCAO,"mice [4]; sEHKO mice, 10 μg over 24 hours via minipump, mean±SD, vehicle-treated sEHKO 9.1±9.5",9.4±12.4
"O=C(O)CCCCCCCCCCCNC(=O)NC12CC3CC(CC(C3)C1)C2 [AUDA, 12-(3-adamantan-1-yl-ureido)-dodecanoic acid]",peak concentration in plasma,[5]; [7],52 nmol/L
same,time of peak concentration in plasma,[5]; [7],1 h
same,half time of elimination in plasma,"[5]; AUDA-BE 10 mg/kg intraperitoneal, non-compartmental model",7 h
same,maximum concentration in plasma,"[5]; AUDA-BE 40 mg/kg intraperitoneal, within the first hour",4 µmol/L
same,MRT,"[5]; C57Bl/6, mouse, plasma, ip, 10 mg/kg, read-out: mean residence time in plasma",9 h
same,MRT,"[1]; C57Bl/6, mouse, brain, intraperitoneal, 10 mg/kg, read-out: mean residence time in brain",6 h
same,levels detected in homogenates of brain tissue,[1],significant levels
same,half-time elimination in brain,[1]; [8],4 h
same,time to maximum concentration in brain,[1]; [8],≤ 3 h
"C#CCOc1ccccc1CCCCCC(=O)NS(C)(=O)=O [MS-PPOH, N-methylsulfonyl-6-(2-propargyloxyphenyl)hexanamide]",infarct size after MCAO,C57Bl/6 mice,24±6%
C=CCN1C[C@H](C)N([C@@H](c2ccccc2)c2ccc(C(=O)N(CC)CC)cc2)C[C@H]1C [SNC-162],Infarct Volume,mice [3]; [6],9 ± 2 mm^3
